Data published in patent US9266904B2, “6-bridged heteroaryldihydropyrimidines for the treatment and prophylaxis of hepatitis B virus infection” (priority 2013, dated 2016).
Converted amounts (≈) assume the structure as drawn. Read-outs that look alike come from different tables or passages of the source.

What was measured:
[1] = system: HBV replication in HepG2.2.15 cells; assay: Anti-HBV activity in vitro in HepG2.2.15 cells (extracellular HBV DNA by qPCR); assay type: cell-based
Text: HepG2.2.15 and HepDE19 are stably-transfected cell lines containing the HBV genome. Both cell lines are derived from the hepatoblastoma cell line Hep G2 (American Type Culture Collection, ATCC® HB-8065™) by the published procedures described in references: M A Selles et al. Proc. Natl. Acad. Sci. USA 1987, 84, 1005-1009 and H Guo et al. Journal of Virology 2007, 81, 12472-12484, respectively. Both cell lines were maintained in Dulbecco's modified Eagle's medium (DMEM)-F12 medium supplemented with 10% fetal bovine serum, 100 U/mL penicillin, 100 μg/mL streptomycin, and 0.5 mg/mL of G418.
While HepG2.2.15 cells constitutively support HBV replication and production of virus particles, HepDE19 cells are inducible by tetracycline. Addition of 1 μg/mL tetracycline in culture medium suppresses HBV replication in HepDE19 cells, whereas switching to tetracycline-free medium resumes this process.
HepG2.2.15 cells were seeded into 96-well plates (3×10^4 cells in 100 μL media per well) and incubated overnight at 37° C. The test compounds were serially half-log diluted in DMSO, then diluted 100 times in culture media. 100 μL diluted compounds were added into the plates to reach 0.5% final concentration of DMSO in every well. Five days after compound treatment, culture supernatant was collected for further analysis.
For quantitative PCR detection of extracellular HBV DNA, 100 μL culture supernatant was collected and processed in MagNA Pure 96 Nucleic Acid Purification System (Roche Applied Science) for viral DNA extraction. The extracted samples were subjected to HBV DNA quantification by qPCR. The effective compound concentration at which HBV replication is inhibited by 50% (EC50) was determined.
The Examples were tested in the above assays as described herein and found to have EC50<1 μM in HepG2.2.15 assay.

[2] = Human microsomal clearance assay; assay type: in vitro ADME
Description: Microsomes were preincubated with test compound for 10 minutes at 37° C. in 100 mM phosphate buffer with pH 7.4. The reactions were initiated by adding NADPH regenerating system to give a final incubation volume of 400 μL. The incubations finally contained 1 μM test compound, 0.5 mg/mL liver microsomal protein, 3.0 mM glucose 6-phosphate, 1.0 mM NADP, 3.0 mM MgCl2 and 0.05 mg/mL glucose 6-phosphate dehydrogenase in 100 mM phosphate buffer with pH 7.4. After incubation times of 0, 3, 6, 9, 15 and 30 minutes, 50 μL, incubation was transferred to the quench solution containing the internal standard which was 2 μM tolbutamide. After precipitation and centrifugation, test compound concentrations in the samples were determined by LC-MS/MS. Controls of no NADPH regenerating system at zero and 30 minutes were also prepared and analyzed.

[3] = Lyophilisation solubility assay (Lysa); assay type: physicochemical; conditions: thermodynamic from solid
Description: The aqueous solubility is an important physico-chemical property that plays a significant role in various physical and biological processes. It is desirable to have good solubility which enables good permeability and gastric and intestinal absorption, linear dose proportionality, less PK variability, and easy formulation for PD/PK studies. […] Lyophilisation solubility assay (Lysa) is a well adopted high throughput assay to measure compound solubility in industry.
Samples are prepared in duplicate from 10 mM DMSO stock solutions. After evaporation of DMSO with a centrifugal vacuum evaporator, the residue is solved in 0.05 M phosphate buffer (pH 6.5), stirred for one hour and then shook for two hours. After one night, the solution is filtered using a microtiter filter plate and then the filtrate and its 1/10 dilution are then analyzed by direct UV measurement or by HPLC-UV. In addition a four-point calibration curve is prepared from the 10 mM stock solutions and used for the solubility determination of the compounds. The results are in μg/ml. In case the percentage of sample measured in solution after evaporation divided by the calculated maximum of sample amount is bigger than 80% the solubility is reported as bigger than this value.

[4] = Hepatitis B virus, HepG2.2.15, Anti-HBV activity in HepG2.2.15 cells, read-out: EC50

Q: What does the source list for `COC(=O)C1=C(CN2[C@@H]3COC[C@H]2CC(OCC(=O)O)C3)NC(c2nccs2)=N[C@H]1c1ccc(F)cc1Cl` (stereo partly drawn) [Example 46, 2-[[(1R,5S)-9-[[(4R)-4-(2-chloro-4-fluoro-phenyl)-5-methoxycarbonyl-2-thiazol-2-yl-1,4-dihydropyrimidin-6-yl]methyl]-3-oxa-9-azabicyclo[3.3.1]nonan-7-yl]oxy]acetic acid]?
A: EC50 [1, 4]: 86.6 nM; CLh ([2]; human, 1 μM, pH 7.4): 4.0 mL/min/kg; solubility thermodynamic ([3]; pH 6.5, aqueous buffer): > 685 µg/mL

Q: Which results are given for `COC(=O)C1=C(CN2C3COCC2CC(C(=O)O)C3)NC(c2nccs2)=NC1c1ccc(F)c(F)c1` (stereo not shown) [Example 3, 9-[6-(3,4-Difluoro-phenyl)-5-methoxycarbonyl-2-thiazol-2-yl-3,6-dihydro-pyrimidin-4-ylmethyl]-3-oxa-9-aza-bicyclo[3.3.1]nonane-7-carboxylic acid]?
A: EC50 [1, 4]: 400 nM; CLh ([2]; human, 1 μM, pH 7.4): 0 mL/min/kg; solubility thermodynamic ([3]; pH 6.5, aqueous buffer): > 678 µg/mL

Q: Which results are given for `COC(=O)C1=C(CN2[C@H]3CC[C@]2(C(=O)O)COC3)NC(c2nccs2)=N[C@H]1c1ccc(F)c(F)c1C` [Example 84, (1S,5R)-8-[[(4S)-4-(3,4-difluoro-2-methyl-phenyl)-5-methoxycarbonyl-2-thiazol-2-yl-1,4-dihydropyrimidin-6-yl]methyl]-3-oxa-8-azabicyclo[3.2.1]octane-5-carboxylic acid]?
A: EC50 [1, 4]: 37.6 nM; CLh ([2]; human, 1 μM, pH 7.4): 0 mL/min/kg; solubility thermodynamic ([3]; pH 6.5, aqueous buffer): > 643 µg/mL

Q: What does the source list for `COC(=O)C1=C(CN2[C@@H]3COC[C@H]2C[C@H](CC(=O)O)C3)NC(c2nccs2)=N[C@H]1c1ccccc1Br` [Example 76, Exo-2-[(1S,5R)-9-[[(4R)-4-(2-bromophenyl)-5-methoxycarbonyl-2-thiazol-2-yl-1,4-dihydropyrimidin-6-yl]methyl]-3-oxa-9-azabicyclo[3.3.1]nonan-7-yl]acetic acid]?
A: EC50 [1, 4]: 31 nM; CLh ([2]; human, 1 μM, pH 7.4): 3.3 mL/min/kg; solubility thermodynamic ([3]; pH 6.5, aqueous buffer): > 706 µg/mL

Q: Which EC50 [1, 4] does the source give for `COC(=O)C1=C(CN2C3COCC2CN(C(C)=O)C3)NC(c2nccs2)=N[C@H]1c1ccc(F)cc1Cl` [Example 15, (R)-6-(7-Acetyl-3-oxa-7,9-diaza-bicyclo[3.3.1]non-9-ylmethyl)-4-(2-chloro-4-fluoro-phenyl)-2-thiazol-2-yl-1,4-dihydro-pyrimidine-5-carboxylic acid methyl ester] here?
A: 43 nM

Q: And the solubility thermodynamic ([3]; pH 6.5, aqueous buffer)?
A: 233 µg/mL (≈ 436 µM)

Q: Which results are given for `COC(=O)C1=C(CN2C3COCC2CN(C(C)C)C3)NC(c2nccs2)=N[C@H]1c1ccc(F)cc1Cl` [Example 13, (R)-4-(2-Chloro-4-fluoro-phenyl)-6-(7-isopropyl-3-oxa-7,9-diaza-bicyclo[3.3.1]non-9-ylmethyl)-2-thiazol-2-yl-1,4-dihydro-pyrimidine-5-carboxylic acid methyl ester]?
A: EC50 [1, 4]: 270 nM; solubility thermodynamic ([3]; pH 6.5, aqueous buffer): 313 µg/mL (≈ 586 µM)

Q: Which EC50 [1, 4] does the source give for `COC(=O)C1=C(CN2C3CSCC2CC(CC(=O)O)C3)NC(c2nccs2)=N[C@H]1c1ccc(F)cc1Cl` (stereo partly shown) [Example 42, 6-(7-Carboxymethyl-3-thia-9-aza-bicyclo[3.3.1]non-9-ylmethyl)-4-(2-chloro-4-fluoro-phenyl)-2-thiazol-2-yl-1,4-dihydro-pyrimidine-5-carboxylic acid methyl ester] here?
A: 54.5 nM

Q: What about the solubility thermodynamic ([3]; pH 6.5, aqueous buffer) of the same molecule?
A: 188 µg/mL (≈ 333 µM)

Q: Which CLh ([2]; human, 1 μM, pH 7.4) does the source give for `COC(=O)C1=C(CN2[C@@H]3CC[C@H]2C[C@@H](O)C3)NC(c2nccs2)=N[C@H]1c1ccc(F)cc1Cl` [Example 44, (R)-4-(2-Chloro-4-fluoro-phenyl)-6-((1R,3R,5S)-3-hydroxy-8-aza-bicyclo[3.2.1]oct-8-ylmethyl)-2-thiazol-2-yl-1,4-dihydro-pyrimidine-5-carboxylic acid methyl ester] here?
A: 7.1 mL/min/kg

Q: And the solubility thermodynamic ([3]; pH 6.5, aqueous buffer)?
A: > 623 µg/mL

Q: With `CCOC(=O)C1=C(CN2[C@@H]3C[C@H](CC(=O)O)C[C@H]2C(F)(F)C3)NC(c2nccs2)=N[C@H]1c1cccc(F)c1Cl` [Example 98, 2-[(1R,3S,5S)-8-[[(4R)-4-(2-chloro-3-fluoro-phenyl)-5-ethoxycarbonyl-2-thiazol-2-yl-1,4-dihydropyrimidin-6-yl]methyl]-6,6-difluoro-8-azabicyclo[3.2.1]octan-3-yl]acetic acid] as the molecule, how does the EC50 [1, 4] read?
A: 0.7 nM

Q: And the CLh ([2]; human, 1 μM, pH 7.4)?
A: 4.5 mL/min/kg

Q: For `COC(=O)C1=C(CN2[C@@H]3C[C@H](CC(=O)O)C[C@H]2C(F)(F)C3)NC(c2nccs2)=N[C@H]1c1ccc(Cl)c(F)c1` [Example 96, 2-[(1R,3S,5S)-8-[[(4S)-4-(4-chloro-3-fluoro-phenyl)-5-methoxycarbonyl-2-thiazol-2-yl-1,4-dihydropyrimidin-6-yl]methyl]-6,6-difluoro-8-azabicyclo[3.2.1]octan-3-yl]acetic acid], which EC50 [1, 4] is on record?
A: 6.8 nM

Q: And the CLh ([2]; human, 1 μM, pH 7.4)?
A: 1.8 mL/min/kg

Q: Which results are given for “2-[(1R,5R,7S)-9-[[(4S)-4-(3,4-difluoro-2-methyl-phenyl)-5-methoxycarbonyl-2-thiazol-2-yl-1,4-dihydropyrimidin-6-yl]methyl]-6,6-difluoro-3-oxa-9-azabicyclo[3.3.1]nonan-7-yl]acetic acid or 2-[(1S,5S,7R)-9-[[(4S)-4-(3,4-difluoro-2-methyl-phenyl)-5-methoxycarbonyl-2-thiazol-2-yl-1,4-dihydropyrimidin-6-yl]methyl]-6,6-difluoro-3-oxa-9-azabicyclo[3.3.1]nonan-7-yl]acetic acid [Example 132]”?
A: EC50 ([1]; Anti-HBV activity in HepG2.2.15 cells, read-out: EC50): 10.3 nM; CLh ([2]; human microsomal clearance): 2.6 mL/min/kg

Q: Which results are given for `COC(=O)C1=C(CN2CC3CC2CN3C(C)=O)NC(c2nccs2)=N[C@H]1c1ccc(F)cc1Cl` (stereo partly drawn) [Example 41, (R)-6-(5-Acetyl-2,5-diaza-bicyclo[2.2.1]hept-2-ylmethyl)-4-(2-chloro-4-fluoro-phenyl)-2-thiazol-2-yl-1,4-dihydro-pyrimidine-5-carboxylic acid methyl ester]?
A: EC50 ([1]; Hepatitis B virus, HepG2.2.15): 133 nM; solubility thermodynamic ([3]; aqueous buffer, 0.05 M phosphate buffer (pH 6.5), reported as bigger than the value if more than 80% of the sample is in solution, read-out: Lysa): > 552 µg/mL

Q: For `CCOC(=O)C1=C(CN2[C@H]3C[C@@H](CC(=O)O)C[C@@H]2C(F)(F)C3)NC(c2nccs2)=N[C@H]1c1cccc(F)c1Cl` [Example 99, 2-[(1S,3R,5R)-8-[[(4R)-4-(2-chloro-3-fluoro-phenyl)-5-ethoxycarbonyl-2-thiazol-2-yl-1,4-dihydropyrimidin-6-yl]methyl]-6,6-difluoro-8-azabicyclo[3.2.1]octan-3-yl]acetic acid], which EC50 [1, 4] is on record?
A: 12.6 nM

Q: And the CLh ([2]; human, 1 μM, pH 7.4)?
A: 3 mL/min/kg

Q: For `COC(=O)C1=C(CN2C3CNC(=O)CC2COC3)NC(c2nccs2)=N[C@H]1c1ccc(F)cc1Cl` (stereo partly drawn) [Example 34, (R)-4-(2-Chloro-4-fluoro-phenyl)-6-(4-oxo-8-oxa-3,10-diaza-bicyclo[4.3.1]dec-10-ylmethyl)-2-thiazol-2-yl-1,4-dihydro-pyrimidine-5-carboxylic acid methyl ester], which EC50 [1, 4] is on record?
A: 42 nM

Q: And the solubility thermodynamic ([3]; pH 6.5, aqueous buffer)?
A: 263 µg/mL (≈ 506 µM)

Q: Which EC50 [1, 4] does the source give for `CCOC(=O)C1=C(CN2C3CC(C(=O)O)CC2C(F)(F)C3)NC(c2nccs2)=N[C@H]1c1cccc(F)c1Cl` (stereo partly drawn) [Example 150, 8-[[(4R)-4-(2-chloro-3-fluoro-phenyl)-5-ethoxycarbonyl-2-thiazol-2-yl-1,4-dihydropyrimidin-6-yl]methyl]-6,6-difluoro-8-azabicyclo[3.2.1]octane-3-carboxylic acid] here?
A: 7.7 nM

Q: And the CLh ([2]; human, 1 μM, pH 7.4)?
A: 3.1 mL/min/kg
